ChEMBL document CHEMBL4706546, “Sulfoximines as Rising Stars in Modern Drug Discovery? Current Status and Perspective on an Emerging Functional Group in Medicinal Chemistry” (J Med Chem, 2020)
In brackets after ≈: the same amount, converted by molar mass.

Assays:
[1] = human, hepatocytes, 1 µM
Description: Clearance in human hepatocytes at 1 uM measured after 2 to 90 mins by HPLC-based LCMS/MS analysis

[2] = rat, hepatocytes, 1 µM
Description: Clearance in rat hepatocytes at 1 uM measured after 2 to 90 mins by HPLC-based LCMS/MS analysis

Plasmodium falciparum [3] = assay: microbe, parasite or virus in culture; assay type: functional, organism-based; conditions: 3D7, Erythrocyte, 48 h
Description: Antiplasmodial activity against Plasmodium falciparum 3D7 infected in human erythrocytes incubated for 48 hrs by lactate dehydrogenase colorimetric enzyme assay

[4] = molecular target: T1, Cyclin-dependent kinase 2/cyclin E1 (Homo sapiens, UniProt P24941); assay type: cell-based, Sf9
Rattus norvegicus [5] = species on record: Rattus norvegicus; assay: animal or person; assay type: functional; conditions: iv, 0.5 min, time 30 sec
Description: Antiallergic activity in iv dosed rat model of IgE-mediated passive cutaneous anaphylaxis administered 30 secs prior to IgE challenge

Estrogen receptor = molecular target: T2, Estrogen receptor (Homo sapiens, UniProt P03372)
T2 sequence (P03372 whole entry): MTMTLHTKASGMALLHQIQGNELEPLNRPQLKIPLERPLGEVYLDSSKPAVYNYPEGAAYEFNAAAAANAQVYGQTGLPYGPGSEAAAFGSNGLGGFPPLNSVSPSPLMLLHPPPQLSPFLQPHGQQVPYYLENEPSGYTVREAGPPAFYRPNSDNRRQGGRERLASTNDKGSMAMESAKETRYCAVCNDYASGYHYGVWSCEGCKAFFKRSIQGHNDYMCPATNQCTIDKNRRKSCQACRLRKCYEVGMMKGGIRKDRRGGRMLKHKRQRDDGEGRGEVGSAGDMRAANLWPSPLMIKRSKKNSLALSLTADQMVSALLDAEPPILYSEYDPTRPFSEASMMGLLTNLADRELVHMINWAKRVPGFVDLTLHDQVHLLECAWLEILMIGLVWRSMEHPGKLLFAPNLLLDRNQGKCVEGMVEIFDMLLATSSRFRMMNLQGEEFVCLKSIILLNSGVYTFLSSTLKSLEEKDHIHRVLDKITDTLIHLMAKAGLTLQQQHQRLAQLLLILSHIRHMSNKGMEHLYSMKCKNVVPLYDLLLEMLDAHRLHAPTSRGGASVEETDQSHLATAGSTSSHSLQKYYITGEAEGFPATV
Description: Inhibition of wild type ESR1 (unknown origin) by transactivation assay

Dipeptidyl peptidase 4 = Dipeptidyl peptidase 4 (Homo sapiens, UniProt P27487)
Description: Inhibition of human DPP4 expressed in baculovirus expression system using Gly-Pro-AMC as substrate by fluorometric assay

physchem [6] = conditions: buffer
Description: Thermodynamic solubility in water by equilibrium shake-flask method

[7] = molecular target: Vascular endothelial growth factor receptor 2 (Homo sapiens, UniProt P35968); assay type: cell-based, Sf9
Carbonic anhydrase 2 = Carbonic anhydrase 2 (Homo sapiens, UniProt P00918); assay type: ADME
Description: Inhibition of human carbonic anhydrase 2 using 4-nitrophenyl acetate as substrate by spectrophotometry

A-375 = assay: cells; assay type: functional; conditions: Homo sapiens, time 72 hrs
Description: Antiproliferative activity against human A375 cells assessed as cell proliferation at 25 uM after 72 hrs by alamarBlue cell proliferation assay relative to control

Beta-secretase 1 = Beta-secretase 1 (Homo sapiens, UniProt P56817); assay type: cell-based, HEK293
Description: Inhibition of BACE1 in HEK293 cells harboring APP assessed as reduction in amyloidbeta 40 level measured after 18 to 20 hrs by AlphaLISA Assay

[8] = molecular target: cGMP-specific 3',5'-cyclic phosphodiesterase (Homo sapiens, UniProt O76074); assay type: cell-based; conditions: platelet
Description: Inhibition of human platelets derived PDE5 using [3H]-cGMP as substrate incubated for 60 min by scintillation proximity assay

in vitro [9] = conditions: human, Caco-2
Description: Apparent permeability across apical to basolateral side in human Caco2 cells at 2 uM measured after 2 hrs by LC-MS/MS analysis

in vitro [10] = conditions: human, Caco-2; remark: listed apart in the source
Description: Efflux ratio of apparent permeability across basolateral to apical side over apical to basolateral side in human Caco2 cells

physchem [11] = conditions: in vivo, pH 7.4
HeLa = assay: cells; assay type: functional, cell-based; conditions: Homo sapiens, 96 h
Description: Antiproliferative activity against human HeLa cells incubated for 96 hrs by crystal violet staining assay

[12] = molecular target: T3, Nuclear receptor ROR-gamma (Homo sapiens, UniProt P51449); assay type: cell-based, CD4+ve Th
T3 sequence (P51449 whole entry): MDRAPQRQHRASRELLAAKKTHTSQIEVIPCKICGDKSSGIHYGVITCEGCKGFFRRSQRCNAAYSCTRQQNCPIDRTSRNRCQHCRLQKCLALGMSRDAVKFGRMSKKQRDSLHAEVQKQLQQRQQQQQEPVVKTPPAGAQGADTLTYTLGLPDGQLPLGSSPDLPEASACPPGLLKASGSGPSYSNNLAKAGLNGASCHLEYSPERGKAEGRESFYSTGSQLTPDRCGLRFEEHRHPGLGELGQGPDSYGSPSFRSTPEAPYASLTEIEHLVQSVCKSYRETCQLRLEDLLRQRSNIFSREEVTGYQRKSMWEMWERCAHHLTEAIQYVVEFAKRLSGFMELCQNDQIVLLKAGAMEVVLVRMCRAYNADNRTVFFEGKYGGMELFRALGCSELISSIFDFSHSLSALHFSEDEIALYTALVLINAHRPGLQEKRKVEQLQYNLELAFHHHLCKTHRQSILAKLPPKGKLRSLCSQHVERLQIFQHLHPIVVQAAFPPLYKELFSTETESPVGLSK
Description: Inverse agonist activity at RORgammat in human CD4-positive T cells assessed as reduction in Th17 level incubated for 5 days by MSD electrochemiluminescent cytokine assay

[13] = molecular target: T4, 1,25-dihydroxyvitamin D(3) 24-hydroxylase, mitochondrial (Homo sapiens, UniProt Q07973); assay: biochemical; assay type: cell-based, V79
T4 sequence (Q07973 whole entry): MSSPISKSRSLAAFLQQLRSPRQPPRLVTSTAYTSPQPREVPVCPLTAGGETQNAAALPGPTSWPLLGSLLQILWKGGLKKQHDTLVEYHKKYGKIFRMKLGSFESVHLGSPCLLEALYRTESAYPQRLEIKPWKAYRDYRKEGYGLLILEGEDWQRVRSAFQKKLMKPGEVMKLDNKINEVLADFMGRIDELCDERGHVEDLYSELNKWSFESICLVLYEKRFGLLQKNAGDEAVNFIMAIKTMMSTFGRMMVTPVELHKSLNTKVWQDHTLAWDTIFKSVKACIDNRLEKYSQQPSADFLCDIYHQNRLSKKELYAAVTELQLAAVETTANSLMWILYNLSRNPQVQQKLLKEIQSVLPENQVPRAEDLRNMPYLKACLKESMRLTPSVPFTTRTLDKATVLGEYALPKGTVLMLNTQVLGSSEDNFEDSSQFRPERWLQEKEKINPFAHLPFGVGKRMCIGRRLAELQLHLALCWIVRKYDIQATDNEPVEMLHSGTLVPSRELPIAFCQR

Plasmodium falciparum [14] = assay: microbe, parasite or virus in culture; assay type: functional, organism-based; conditions: 3D7
Description: Antiplasmodial activity against Plasmodium falciparum 3D7

Rattus norvegicus [15] = species on record: Rattus norvegicus; assay: animal or person; assay type: functional; conditions: po, 0.5 h, time 30 min
Description: Antiallergic activity in po dosed rat model of IgE-mediated passive cutaneous anaphylaxis administered 30 mins prior to IgE challenge

MCF7 = assay: cells; assay type: functional, cell-based; conditions: Homo sapiens, MCF7, 96 h
Description: Antiproliferative activity against human MCF7 cells incubated for 4 days by crystal violet staining based assay

[16] = molecular target: T1, Cyclin-dependent kinase 2/cyclin E1; assay type: cell-based, Sf9; remark: listed apart in the source
[17] = molecular target: Cyclin-dependent kinase 1/cyclin B1 (Homo sapiens, UniProt P06493); assay type: cell-based, Sf9
physchem [18] = conditions: in vivo, pH 6.5

Beta-secretase 1, sequence (P56817 whole entry): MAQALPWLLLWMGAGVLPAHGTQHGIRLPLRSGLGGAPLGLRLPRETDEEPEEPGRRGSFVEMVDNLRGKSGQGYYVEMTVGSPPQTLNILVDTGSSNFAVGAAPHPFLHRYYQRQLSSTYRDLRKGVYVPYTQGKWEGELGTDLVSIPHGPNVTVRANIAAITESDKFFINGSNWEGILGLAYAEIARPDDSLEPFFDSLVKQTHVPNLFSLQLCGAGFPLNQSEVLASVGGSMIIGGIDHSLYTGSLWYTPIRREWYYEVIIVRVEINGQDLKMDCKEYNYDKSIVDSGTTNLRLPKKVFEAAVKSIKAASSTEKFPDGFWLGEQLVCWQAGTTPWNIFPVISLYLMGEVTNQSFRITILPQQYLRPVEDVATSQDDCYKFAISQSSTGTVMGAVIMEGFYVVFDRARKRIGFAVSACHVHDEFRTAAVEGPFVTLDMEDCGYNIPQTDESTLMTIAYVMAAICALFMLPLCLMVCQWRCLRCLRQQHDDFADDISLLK
Vascular endothelial growth factor receptor 2, sequence (P35968 whole entry): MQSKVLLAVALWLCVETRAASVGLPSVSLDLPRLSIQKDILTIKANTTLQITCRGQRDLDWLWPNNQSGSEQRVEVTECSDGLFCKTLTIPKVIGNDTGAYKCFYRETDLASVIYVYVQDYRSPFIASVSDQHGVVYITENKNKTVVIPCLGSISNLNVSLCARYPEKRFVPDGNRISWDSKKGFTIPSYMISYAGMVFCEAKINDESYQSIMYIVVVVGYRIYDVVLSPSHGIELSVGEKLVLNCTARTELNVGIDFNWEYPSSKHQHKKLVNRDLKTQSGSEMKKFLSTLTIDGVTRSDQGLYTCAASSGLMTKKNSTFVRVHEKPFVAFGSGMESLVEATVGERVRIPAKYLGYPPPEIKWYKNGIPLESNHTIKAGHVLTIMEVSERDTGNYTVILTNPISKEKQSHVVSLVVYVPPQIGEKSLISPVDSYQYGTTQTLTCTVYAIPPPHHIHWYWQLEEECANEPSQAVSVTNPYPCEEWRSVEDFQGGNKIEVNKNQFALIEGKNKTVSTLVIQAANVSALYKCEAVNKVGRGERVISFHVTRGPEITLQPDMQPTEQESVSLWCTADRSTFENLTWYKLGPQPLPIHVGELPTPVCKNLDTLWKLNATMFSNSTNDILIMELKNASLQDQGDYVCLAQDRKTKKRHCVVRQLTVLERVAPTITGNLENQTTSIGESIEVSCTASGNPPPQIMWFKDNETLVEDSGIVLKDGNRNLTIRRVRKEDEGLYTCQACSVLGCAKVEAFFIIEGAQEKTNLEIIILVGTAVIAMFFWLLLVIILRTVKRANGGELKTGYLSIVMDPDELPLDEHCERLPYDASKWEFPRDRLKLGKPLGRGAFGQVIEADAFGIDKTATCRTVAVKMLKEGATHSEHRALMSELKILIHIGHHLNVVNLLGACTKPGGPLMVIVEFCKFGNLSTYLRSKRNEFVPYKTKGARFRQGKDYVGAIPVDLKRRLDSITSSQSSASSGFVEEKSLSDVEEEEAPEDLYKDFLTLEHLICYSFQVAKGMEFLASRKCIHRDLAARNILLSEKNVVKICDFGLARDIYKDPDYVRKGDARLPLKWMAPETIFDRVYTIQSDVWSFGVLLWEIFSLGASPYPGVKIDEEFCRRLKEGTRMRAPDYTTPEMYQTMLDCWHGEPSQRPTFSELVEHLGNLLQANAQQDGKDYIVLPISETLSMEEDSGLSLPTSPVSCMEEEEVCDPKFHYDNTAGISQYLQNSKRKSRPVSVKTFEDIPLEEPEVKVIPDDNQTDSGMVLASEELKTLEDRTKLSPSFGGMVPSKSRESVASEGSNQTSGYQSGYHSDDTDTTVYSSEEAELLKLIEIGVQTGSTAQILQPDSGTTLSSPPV
Dipeptidyl peptidase 4, sequence (P27487 whole entry): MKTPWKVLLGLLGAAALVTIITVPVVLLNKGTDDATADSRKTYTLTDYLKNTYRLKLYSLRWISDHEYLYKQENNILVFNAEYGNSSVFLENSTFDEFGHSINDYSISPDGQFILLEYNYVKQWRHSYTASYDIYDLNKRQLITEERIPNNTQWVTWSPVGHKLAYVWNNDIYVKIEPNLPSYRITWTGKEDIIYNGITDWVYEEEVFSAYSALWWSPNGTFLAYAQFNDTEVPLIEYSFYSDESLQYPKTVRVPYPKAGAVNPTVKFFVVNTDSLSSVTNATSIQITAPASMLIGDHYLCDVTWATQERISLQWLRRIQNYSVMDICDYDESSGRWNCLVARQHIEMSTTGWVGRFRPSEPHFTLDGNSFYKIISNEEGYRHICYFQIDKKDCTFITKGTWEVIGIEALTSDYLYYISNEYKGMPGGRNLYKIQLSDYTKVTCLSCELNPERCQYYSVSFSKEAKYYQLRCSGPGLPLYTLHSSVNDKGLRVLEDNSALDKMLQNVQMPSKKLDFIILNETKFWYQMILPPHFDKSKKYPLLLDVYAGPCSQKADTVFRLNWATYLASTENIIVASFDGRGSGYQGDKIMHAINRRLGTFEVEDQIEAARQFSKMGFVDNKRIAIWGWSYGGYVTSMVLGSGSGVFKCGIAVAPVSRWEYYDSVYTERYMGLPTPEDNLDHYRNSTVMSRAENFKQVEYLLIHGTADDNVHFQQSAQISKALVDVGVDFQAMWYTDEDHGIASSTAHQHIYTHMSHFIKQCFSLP
Cyclin-dependent kinase 1/cyclin B1, sequence (P06493 whole entry): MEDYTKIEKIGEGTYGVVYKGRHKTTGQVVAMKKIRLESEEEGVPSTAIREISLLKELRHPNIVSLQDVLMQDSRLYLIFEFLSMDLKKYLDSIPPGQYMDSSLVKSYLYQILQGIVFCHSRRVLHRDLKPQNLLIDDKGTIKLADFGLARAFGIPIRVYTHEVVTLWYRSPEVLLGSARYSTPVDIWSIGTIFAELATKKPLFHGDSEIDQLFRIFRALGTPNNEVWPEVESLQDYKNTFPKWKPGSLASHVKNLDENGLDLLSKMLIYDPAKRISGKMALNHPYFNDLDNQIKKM
Cyclin-dependent kinase 1/cyclin B1, sequence (P14635 whole entry, further chain): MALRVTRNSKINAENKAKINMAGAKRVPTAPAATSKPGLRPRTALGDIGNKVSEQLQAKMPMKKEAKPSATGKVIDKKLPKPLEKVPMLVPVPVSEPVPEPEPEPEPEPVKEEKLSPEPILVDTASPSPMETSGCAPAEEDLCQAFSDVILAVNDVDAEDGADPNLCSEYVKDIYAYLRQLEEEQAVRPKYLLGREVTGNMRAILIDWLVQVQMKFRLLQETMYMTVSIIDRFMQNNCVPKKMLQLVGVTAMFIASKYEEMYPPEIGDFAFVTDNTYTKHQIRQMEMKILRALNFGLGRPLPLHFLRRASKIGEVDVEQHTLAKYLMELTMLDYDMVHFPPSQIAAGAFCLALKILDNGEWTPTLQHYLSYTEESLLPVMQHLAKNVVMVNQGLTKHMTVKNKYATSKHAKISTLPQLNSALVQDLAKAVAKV

With `O=C(NC1CCNCC1)c1n[nH]cc1NC(=O)c1c(Cl)cccc1Cl` [AT-7519] the CLH [1] was 4 mL/min/kg and the CLH [2] was 29.3 mL/min/kg.

With `CN=S1(=O)C[C@@H]2[C@@H](OCc3ccccc3)[C@H](OCc3ccccc3)[C@@H](COCc3ccccc3)O[C@@H]2c2cc(C(C)(C)C)ccc21` (some centres not stated) the IC50 (Plasmodium falciparum [3]) was 900 nM.

Work on `COc1cc(F)ccc1-c1cc(Nc2cc(C[S@@](C)(=N)=O)ccn2)ncc1F` yielded an IC50 [4] of 2920 nM.

In the case of `CS(=N)(=O)c1ccc2oc3ccc(C(=O)O)cc3c(=O)c2c1` (configuration not stated), the ED50 (Rattus norvegicus [5]) is reported as 0.03 mg/kg.

Work on `C[C@]12CC[C@@H]3c4ccc(O)cc4C[C@@H](CCCCCCCCC[S@@](=N)(=O)CCCC(F)(F)C(F)(F)F)[C@H]3[C@@H]1CC[C@@H]2O` yielded an IC50 (Estrogen receptor) of 1.8 nM.

Work on `N[C@H]1C[C@@H](N2Cc3cn(S(=O)(=O)NC(=O)c4ccccc4)nc3C2)CO[C@@H]1c1cc(F)ccc1F` yielded an IC50 (Dipeptidyl peptidase 4) of 8.8 nM.

In the case of `C[C@@H](O)[C@@H](C)Oc1nc(Nc2ccc([S@](=N)(=O)C3CC3)cc2)ncc1C(F)(F)F`, the solubility thermodynamic (physchem [6]) is reported as 182 µg/mL (≈ 423 µM), the IC50 [7] is reported as 163 nM and the IC50 (Carbonic anhydrase 2) is reported as over 10000 nM.

Work on `O=C(NS(=O)(=O)c1ccc(Br)s1)c1ccc(Cl)cc1Cl` yielded a growth at 25 µM (A-375) of 25%.

With `Cc1cc(C#N)cnc1C(=O)Nc1ccc(F)c([C@]2(C)CS(=O)(=NCC(F)(F)F)N(C)C(N)=N2)c1` (single isomer, unassigned) the IC50 (Beta-secretase 1) was 0.99 nM.

Compound `CN=S1(=O)C[C@@](C)(c2cc(NC(=O)c3ncc(C#N)cc3C)ccc2F)N=C(N)N1CC(F)(F)F` (single isomer, unassigned) has an IC50 (Beta-secretase 1) of 0.59 nM.

Compound `N#Cc1ccc(C(=O)Nc2ccc(F)c([C@]3(CF)CS4(=O)=NCCCCN4C(N)=N3)c2)nc1` (single isomer, unassigned) has an IC50 (Beta-secretase 1) of 28 nM.

Work on `CCCc1nc(C)c2c(=O)[nH]c(-c3cc(S(=O)(=O)N4CCS(=N)(=O)CC4)ccc3OCC)nn12` yielded an IC50 [8] of 0.025 nM, a Papp A→B at 2 h, 2 µM (in vitro [9]) of 0.71 ×10⁻⁶ cm/s and an efflux ratio (in vitro [10]) of 288.

`C[C@H](CO)Nc1nc(Nc2ccc(S(N)(=O)=O)cc2)ncc1Br.Cl` gave a solubility thermodynamic (physchem [6]) of 8 µg/mL, an IC50 [7] of 34 nM and an IC50 (Carbonic anhydrase 2) of 514 nM.

Work on `CS(=O)(=NS(=O)(=O)c1ccccc1)n1cc2c(n1)CN([C@H]1CO[C@H](c3cc(F)ccc3F)[C@@H](N)C1)C2` (some centres not stated) yielded an IC50 (Dipeptidyl peptidase 4) of 18 nM.

`COc1cc(F)ccc1-c1ncnc(Nc2cccc(C[S@](C)(=N)=O)c2)n1` [ATUVECICLIB] gave a solubility thermodynamic at 24 h (physchem [11]) of 479 µg/mL (≈ 1240 µM) and an IC50 (HeLa) of 1500 nM.

For `CCc1ccc(N(CC(C)C)S(=O)(=O)c2ccc(OCC3CCOCC3)c(CO)c2)cc1` [GSK2981278], the IC50 [12] was 3.2 nM.

In the case of `CC(C)(C)c1ccc2c(c1)[C@H]1O[C@H](COCc3ccccc3)[C@@H](OCc3ccccc3)[C@H](OCc3ccccc3)[C@H]1C[S@@]2(=N)=O`, the IC50 (Plasmodium falciparum [3]) is reported as 800 nM.

For `COc1cc(F)ccc1-c1ncnc(Nc2cccc(CS(N)(=O)=O)c2)n1`, the solubility thermodynamic at 24 h (physchem [11]) was 11 µg/mL (≈ 28.2 µM).

For `C=C1/C(=C\C=C2/CCC[C@]3(C)C([C@H](C)/C=C/S(=O)(=O)C(C)(C)C)=CC[C@@H]23)C[C@@H](O)C[C@@H]1O`, the IC50 [13] was 27 nM.

For `CCCCCCCCCCCS(=O)(=NCc1cn(Cc2ccccc2)nn1)c1ccccc1` (configuration not stated), the IC50 (Plasmodium falciparum [14]) was 6600 nM.

Compound `C[C@@H](O)[C@@H](C)Oc1nc(Nc2ccc(S(C)(=O)=O)cc2)ncc1C(F)(F)F` has an IC50 (Carbonic anhydrase 2) of over 10000 nM.

For `O=C([O-])c1cc(=O)c2c(OCC(O)COc3cccc4oc(C(=O)[O-])cc(=O)c34)cccc2o1.[Na+].[Na+]` [CROMOLYN SODIUM], the ED50 (Rattus norvegicus [5]) was 1.21 mg/kg.

With `CCCCCCc1cc(S(C)(=N)=O)cc2c(=O)c3cc(C(=O)O)ccc3oc12` (configuration not stated) [SUDEXANOX] the ED50 (Rattus norvegicus [15]) was 0.19 mg/kg.

`N=S1(=O)CCC(NC(=O)c2n[nH]cc2NC(=O)c2c(Cl)cccc2Cl)CC1` (configuration not stated) gave a CLH [1] of 1 mL/min/kg and a CLH [2] of 1 mL/min/kg.

In the case of `N=S(=O)(NC(=O)c1ccc(Cl)cc1Cl)c1ccc(Br)s1` (configuration not stated), the growth at 25 µM (A-375) is reported as 40%.

`CCCc1nc(C)c2c(=O)[nH]c(-c3cc(S(=O)(=O)N4CCN(CC)CC4)ccc3OCC)nn12` gave a Papp A→B at 2 h, 2 µM (in vitro [9]) of 206 ×10⁻⁶ cm/s.

`CCS(=N)(=O)c1ccc(Nc2ncc(Br)c(O[C@H](C)[C@@H](C)O)n2)cc1` (some centres not stated) showed an IC50 (MCF7) of 44 nM, an IC50 [7] of 32 nM and an IC50 (Carbonic anhydrase 2) of over 10000 nM. The IC50 [16] was 3 nM and the IC50 [17] was 2 nM.

Compound `COc1cc(F)ccc1-c1nc(Nc2cc(F)cc(CS(C)(=N)=N)c2)ncc1F` has a solubility thermodynamic at 24 h (physchem [18]) of 91 µg/mL (≈ 216 µM).

Work on `C[C@@]1(c2cc(NC(=O)c3cnc(C#N)cn3)ccc2F)CS2(=O)=NCC(F)(F)CN2C(N)=N1` (single isomer, unassigned) yielded an IC50 (Beta-secretase 1) of 2 nM.
